Assay results from ChEMBL document CHEMBL1201862, “PubChem BioAssay data set” (2004).
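Five concentrations, 48 hours, 96-well plates. GI50 is the concentration that inhibits growth by half.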 The source made the active and inactive calls. No stated cut-off is given here; in the data, active = GI50 up to about 1.1 µM and inactive = higher.

Key:
Experiment in all cases: NCI-60 cell line screen, 48 h
SF-539 = test system: SF-539
RXF 393 = test system: RXF 393
Malme-3M = test system: Malme-3M
DU-145 = test system: DU-145
RPMI-8226 = test system: RPMI-8226
HL-60 = test system: HL-60
SW-620 = test system: SW-620
NCI-H226 = test system: NCI-H226
MOLT-4 = test system: MOLT-4
SF-268 = test system: SF-268
NCI-H460 = test system: NCI-H460
MDA-MB-231 = test system: MDA-MB-231
OVCAR-8 = test system: OVCAR-8
COLO 205 = test system: COLO 205
K562 = test system: K562
SR = test system: SR
UO-31 = test system: UO-31
SK-MEL-5 = test system: SK-MEL-5
HT-29 = test system: HT-29
NCI-H522 = test system: NCI-H522

| Structure (SMILES) | GI50 (SF-539) | GI50 (RXF 393) | GI50 (Malme-3M) | GI50 (DU-145) | GI50 (RPMI-8226) | GI50 (HL-60) | GI50 (SW-620) | GI50 (NCI-H226) | GI50 (MOLT-4) | GI50 (SF-268) | GI50 (NCI-H460) | GI50 (MDA-MB-231) | GI50 (OVCAR-8) | GI50 (COLO 205) | GI50 (K562) | GI50 (SR) | GI50 (UO-31) | GI50 (SK-MEL-5) | GI50 (HT-29) | GI50 (NCI-H522) |
| --- | --- | --- | --- | --- | --- | --- | --- | --- | --- | --- | --- | --- | --- | --- | --- | --- | --- | --- | --- | --- |
| FC(F)(F)c1cccc(-c2nc3nc(Cl)c(Cl)nc3[nH]2)c1 | 3.15 µM (inactive) | 3.1 µM (inactive) | 1.73 µM (inactive) | 3.29 µM (inactive) | 0.426 µM (active) | 1.69 µM (inactive) | 3.72 µM (inactive) | 1.67 µM (inactive) | 2.18 µM (inactive) | 3.03 µM (inactive) | 2.01 µM (inactive) | 2.02 µM (inactive) | 3.06 µM (inactive) | 1.45 µM (inactive) | 1.74 µM (inactive) | 2.62 µM (inactive) | 2.24 µM (inactive) | 0.544 µM (active) | 2.18 µM (inactive) | 0.764 µM (active) |
| CCOC(=O)c1nc2ccccc2nc1Nc1ccc(OC)cc1 | 22 µM (inactive) | 17.5 µM (inactive) | 93.8 µM (inactive) | 73.1 µM (inactive) | > 100 µM (inactive) | > 100 µM (inactive) | > 100 µM (inactive) | 37.5 µM (inactive) | > 100 µM (inactive) | 51.6 µM (inactive) | 40 µM (inactive) | 20.6 µM (inactive) | 73.3 µM (inactive) | > 100 µM (inactive) | > 100 µM (inactive) | > 100 µM (inactive) | 88.7 µM (inactive) | 30 µM (inactive) | > 100 µM (inactive) | 23.8 µM (inactive) |
| COc1cc2c3cc1Oc1c(OC)c(OC)cc4c1C(Cc1ccc(O)c(c1)Oc1ccc(cc1)CC3N(C)CC2)CN(C)C4 (stereo not given) | 12.9 µM (inactive) | 10.6 µM (inactive) | 16.8 µM (inactive) | 17.7 µM (inactive) | 13 µM (inactive) | 1.11 µM (active) | 12.9 µM (inactive) | 28.7 µM (inactive) | 7.31 µM (inactive) | 20.4 µM (inactive) | 16 µM (inactive) | 12.2 µM (inactive) | 15 µM (inactive) | 10 µM (inactive) | 5.22 µM (inactive) | 6.14 µM (inactive) | 16.1 µM (inactive) | 13.5 µM (inactive) | 3.24 µM (inactive) | 12.5 µM (inactive) |
| O=C1C2=C(C(=O)c3c(O)ccc(O)c31)[C@@H](O)[C@@H](O)[C@@H](O)C2 | 3.71 µM (inactive) | 1.85 µM (inactive) | 1.14 µM (inactive) | 2.72 µM (inactive) | 1.02 µM (active) | 0.635 µM (active) | 0.681 µM (active) | 15.1 µM (inactive) | 2.94 µM (inactive) | 2.78 µM (inactive) | 4.71 µM (inactive) | 2.14 µM (inactive) | 2.31 µM (inactive) | 0.0741 µM (active) | 2.77 µM (inactive) | > 100 µM (inactive) | 4.66 µM (inactive) | 1.74 µM (inactive) | 1.32 µM (inactive) | 0.367 µM (active) |
| Cc1cc2c(cc1C)C(=O)c1ncccc1C2=O | 26.5 µM (inactive) | 33.2 µM (inactive) | 7.85 µM (inactive) | 24.2 µM (inactive) | 29.9 µM (inactive) | 11.2 µM (inactive) | 30.9 µM (inactive) | 40.1 µM (inactive) | 20.4 µM (inactive) | 49.3 µM (inactive) | 7.91 µM (inactive) | 22.6 µM (inactive) | 31.9 µM (inactive) | 18.3 µM (inactive) | 17.5 µM (inactive) | < 0.01 µM (active) | 37.3 µM (inactive) | 7 µM (inactive) | 23.3 µM (inactive) | 16.7 µM (inactive) |
| Nc1c2c(nc3ccccc13)-c1ccccc1CCC2 | 13.4 µM (inactive) | 11.2 µM (inactive) | 14.4 µM (inactive) | 15.5 µM (inactive) | 8.67 µM (inactive) | 10.1 µM (inactive) | 11.6 µM (inactive) | 13.6 µM (inactive) | 8.34 µM (inactive) | 17.6 µM (inactive) | 4.89 µM (inactive) | 13.8 µM (inactive) | 15 µM (inactive) | 14.1 µM (inactive) | 6.65 µM (inactive) | 2.39 µM (inactive) | 10.5 µM (inactive) | 7.91 µM (inactive) | 10.3 µM (inactive) | 15.6 µM (inactive) |
